Test results: ChEMBL document CHEMBL5055675, “Apoptosis Inducing 1,3,4-Oxadiazole Conjugates of Capsaicin: Their In Vitro Antiproliferative and In Silico Studies” (ACS Med Chem Lett, 2021)

Columns and labels:
Format in all cases: functional
NCI-H460 [1] = experiment: Antiproliferative activity against human NCI-H460 cells assessed as cell growth inhibition measured after 72 hrs by crystal violet staining based assay; conditions: NCI-H460, 72 h
SK-OV-3 = experiment: Antiproliferative activity against human SK-OV-3 cells assessed as cell growth inhibition measured after 72 hrs by crystal violet staining based assay; conditions: SK-OV-3, 72 h
NCI-H460 [2] = experiment: Induction of apoptosis in human NCI-H460 cells assessed as late apoptotic cells measured after 72 hrs by Annexin V-FITC and propidium iodide staining based flow cytometry analysis (Rvb= 6.93%)
NCI-H460 [3] = experiment: Induction of apoptosis in human NCI-H460 cells assessed as early apoptotic cells measured after 72 hrs by Annexin V-FITC and propidium iodide staining based flow cytometry analysis (Rvb= 6.61%)
HCT-116 = experiment: Antiproliferative activity against human HCT-116 cells assessed as cell growth inhibition measured after 72 hrs by crystal violet staining based assay; conditions: HCT-116, 72 h

Row | SMILES | IC50 (NCI-H460 [1]) | IC50 (SK-OV-3) | Activity (NCI-H460 [2]) | Activity (NCI-H460 [3]) | IC50 (HCT-116)
1 | COc1cc(CNC(=O)CCCC/C=C/C(C)C)ccc1O [CAPSAICIN] | 30.7 µM | 22 µM | 7.25% | 7.17% | 40.2 µM
2 | COc1cccc2c1C(=O)c1c(O)c3c(c(O)c1C2=O)C[C@@](O)(C(=O)CO)C[C@@H]3O[C@H]1C[C@H](N)[C@H](O)[C@H](C)O1 [DOXORUBICIN] | 0.00429 µM | 0.0258 µM | – | 7.16% | 0.0578 µM
